“And” between values parts separate entries of the source, which are not always exact repeats. Equal entries are not always repeated.

The target of one test is T1, human mGlu2 (Homo sapiens, UniProt Q14416).
T1 construct: expressed in transfected cells; host or cells: HEK-293
Nature of the test: mGlu GIRK cell-based thallium flux assay, human mGlu2. The note with it: HEK-293 cells co-expressing human mGlu2 and GIRK; EC80 glutamate; Tl flux. As to the method: (§1) The day before the assay, GIRK cells co-expressing human mGlu3, human or rat mGlu2, as described above, were plated in black-walled, clear-bottomed, amine-coated 384-well plates at a density of 15,000 cells/20 μL/well in the assay medium (glutamine-depleted basal DMEM supplemented with 10% dialyzed FBS, 20 mM HEPES, 1 mM sodium pyruvate). Cells were incubated at 37° C. in the presence of 5% CO2. […] Cells were washed with assay buffer using a microplate washer to remove the medium, resulting in 20 μL of buffer remaining in each well. Immediately, 20 μL of 2× Thallos dye solution was added to cells, and incubated for one hour at 25° C. During the cell dye loading incubation period, a 10-point concentration serial dilution of compound was created from a 10 mM DMSO compound stock by performing a 1:3 serial dilution in DMSO using the Bravo liquid handler. The 2× compound plate was generated by transferring 0.24 μL of the diluted compound in each well to a daughter plate using an Echo acoustic liquid handler.
(§2) After dye-loading, cell plates were washed with assay buffer to remove excess extracellular dye using a microplate washer, resulting in 20 μL of buffer remaining in each well. After a ten-minute equilibration period, cell, compound and agonist plates were loaded into a Hamamatsu μCell kinetic imaging plate reader equipped with liquid handler to monitor fluorescence changes at 480 nm excitation and 540 nm emission settings. Briefly, after collection of baseline fluorescence, 20 μL of compound was added and incubated for two minutes and twenty seconds. This is immediately followed by adding 10 μL of glutamate-thallium buffer to the wells containing compound. The fluorescent signal was monitored an additional 2.5 minutes after the glutamate addition. Multiple reference wells containing no compound received either no glutamate (for a baseline reference), […] glutamate, or ECmax glutamate (for normalization to maximum response). Fluorescence was measured throughout the experiment at a frequency of 1 measurement per every 2 seconds before the glutamate addition and a frequency of 1 measurement per every 1 second after the glutamate addition. Each compound concentration series occurred one time in each plate, and replicates from two or three plates were used in each experimental run. Thallium solutions were handled and disposed of according to guidelines from the Vanderbilt University Chemical Safety department.
(§3) Data were normalized using a static ratio function (F/F0) by dividing every fluorescent measurement by the initial fluorescent value for the corresponding well. The increase in signal resulting from the glutamate/thallium addition of the second add was measured by determining the slope from 3 seconds to 13 seconds after the addition. The average of all baseline slopes (no compound, no glutamate) was determined and this value was subtracted from all other slope values. The average of all ECmax slopes was determined and this value was used to normalize the baseline-corrected slopes to a percent max value (% Emax). The % Emax values for each compound series were plotted versus the log of the concentration and fit to a 4-parameter logistical equation with no fixed parameters.
(§4) Potency is reported as the IC50 resulting from the curve fit.

The next test deals with T2, human mGlu3 (Homo sapiens, UniProt Q14832).
T2 construct: expressed in transfected cells; host or cells: HEK-293
The experiment in a line: mGlu GIRK cell-based thallium flux assay, human mGlu3. The note with it: HEK-293 cells co-expressing human mGlu3 and GIRK; EC80 glutamate; Tl flux. As for the experimental part:
Human embryonic kidney (HEK-293) cell lines stably co-expressing human or rat mGlu2 and G protein-coupled inwardly rectifying potassium (GIRK) channels, or human mGlu3 and GIRK, were used for in vitro evaluation of compound activity in thallium flux assay using a fluorescent thallium indicator dye.
The day before the assay, GIRK cells co-expressing human mGlu3, human or rat mGlu2, as described above, were plated in black-walled, clear-bottomed, amine-coated 384-well plates at a density of 15,000 cells/20 μL/well in the assay medium (glutamine-depleted basal DMEM supplemented with 10% dialyzed FBS, 20 mM HEPES, 1 mM sodium pyruvate). Cells were incubated at 37° C. in the presence of 5% CO2. The next day, assay buffer (Hanks balanced salt solution, 20 mM HEPES, 4.16 mM sodium bicarbonate, pH 7.2) was prepared to dilute compounds and Thallos AM fluorescent dye solution. The 2× Thallos dye solution (final concentration 0.34 μM to the cells) was prepared by mixing the dye stock (2.97 mM in DMSO) to 1:1 with 10% pluronic acid before adding to the assay buffer. Cells were washed with assay buffer using a microplate washer to remove the medium, resulting in 20 μL of buffer remaining in each well. Immediately, 20 μL of 2× Thallos dye solution was added to cells, and incubated for one hour at 25° C. During the cell dye loading incubation period, a 10-point concentration serial dilution of compound was created from a 10 mM DMSO compound stock by performing a 1:3 serial dilution in DMSO using the Bravo liquid handler. The 2× compound plate was generated by transferring 0.24 μL of the diluted compound in each well to a daughter plate using an Echo acoustic liquid handler. This is further diluted in 40 μL assay buffer, resulting in a range from 30 μM to 1.5 nM final concentration in the assay. The agonist plate (5×) was prepared to include EC80 glutamate concentration (a concentration to elicit 80% of a maximally effective glutamate concentration) in thallium buffer (125 mM […], 1 mM magnesium sulfate, 1.8 mM calcium sulfate, 5 mM glucose, 10 mM HEPES, pH 7.2, 12.5 mM thallium sulfate).
as §2
Data were normalized using a static ratio function (F/F0) by dividing every fluorescent measurement by the initial fluorescent value for the corresponding well. The increase in signal resulting from the glutamate/thallium addition of the second add was measured by determining the slope from 3 seconds to 13 seconds after the addition. […]

A further test addresses T3, rat mGlu2 (Rattus norvegicus, UniProt P31421).
T3 construct: expressed in transfected cells; host or cells: HEK-293
The experiment in a line: mGlu GIRK cell-based thallium flux assay, rat mGlu2. The note with it: rat mGlu2 GIRK IC50 (nM), HEK-293 cells co-expressing rat mGlu2 and GIRK; EC80 glutamate; Tl flux. As to the method: as §1, §2, §3, §4

T2 sequence (Q14832 23-879): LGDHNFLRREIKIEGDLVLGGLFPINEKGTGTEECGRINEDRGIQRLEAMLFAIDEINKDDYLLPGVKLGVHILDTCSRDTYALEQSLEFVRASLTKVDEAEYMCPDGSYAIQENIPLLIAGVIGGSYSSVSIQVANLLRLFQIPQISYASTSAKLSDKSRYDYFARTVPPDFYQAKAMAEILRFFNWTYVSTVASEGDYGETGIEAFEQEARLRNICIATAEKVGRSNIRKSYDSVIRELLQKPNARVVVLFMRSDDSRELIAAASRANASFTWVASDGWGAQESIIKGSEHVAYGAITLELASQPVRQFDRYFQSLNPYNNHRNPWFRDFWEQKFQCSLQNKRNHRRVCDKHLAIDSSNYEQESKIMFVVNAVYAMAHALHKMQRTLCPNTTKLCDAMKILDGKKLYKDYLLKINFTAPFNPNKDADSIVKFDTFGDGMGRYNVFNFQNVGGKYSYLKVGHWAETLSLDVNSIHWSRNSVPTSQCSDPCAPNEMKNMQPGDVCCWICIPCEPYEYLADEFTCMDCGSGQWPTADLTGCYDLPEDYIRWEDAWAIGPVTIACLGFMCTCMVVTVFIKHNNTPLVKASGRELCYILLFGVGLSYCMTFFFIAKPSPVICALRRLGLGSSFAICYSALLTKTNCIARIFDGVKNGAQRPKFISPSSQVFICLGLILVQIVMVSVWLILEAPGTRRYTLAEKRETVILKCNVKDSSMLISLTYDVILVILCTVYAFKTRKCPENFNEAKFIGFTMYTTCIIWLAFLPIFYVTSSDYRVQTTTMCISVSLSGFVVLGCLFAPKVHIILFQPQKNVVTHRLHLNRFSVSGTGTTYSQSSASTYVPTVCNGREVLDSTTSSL
T1 sequence (Q14416 19-872): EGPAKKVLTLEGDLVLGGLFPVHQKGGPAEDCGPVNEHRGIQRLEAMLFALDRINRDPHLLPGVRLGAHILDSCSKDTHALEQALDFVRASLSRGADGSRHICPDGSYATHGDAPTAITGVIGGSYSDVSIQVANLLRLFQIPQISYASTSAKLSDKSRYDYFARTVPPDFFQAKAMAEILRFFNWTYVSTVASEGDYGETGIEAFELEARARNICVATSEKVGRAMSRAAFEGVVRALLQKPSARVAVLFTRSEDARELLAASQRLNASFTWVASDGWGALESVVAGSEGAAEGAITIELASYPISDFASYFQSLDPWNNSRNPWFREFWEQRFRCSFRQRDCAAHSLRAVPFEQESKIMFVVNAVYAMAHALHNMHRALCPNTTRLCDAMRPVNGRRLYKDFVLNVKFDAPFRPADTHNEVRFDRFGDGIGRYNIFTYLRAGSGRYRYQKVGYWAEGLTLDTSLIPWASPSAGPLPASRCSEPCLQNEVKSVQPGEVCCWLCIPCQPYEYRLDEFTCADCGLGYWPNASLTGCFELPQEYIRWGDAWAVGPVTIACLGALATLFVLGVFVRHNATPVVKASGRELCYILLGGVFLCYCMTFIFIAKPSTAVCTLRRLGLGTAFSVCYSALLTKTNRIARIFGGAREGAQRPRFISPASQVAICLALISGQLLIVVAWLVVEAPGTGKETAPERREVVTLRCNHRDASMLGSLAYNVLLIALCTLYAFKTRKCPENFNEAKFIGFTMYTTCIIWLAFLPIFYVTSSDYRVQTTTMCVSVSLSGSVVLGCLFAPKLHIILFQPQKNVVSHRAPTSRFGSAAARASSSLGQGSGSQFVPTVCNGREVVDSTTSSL
T3 sequence (P31421 19-872): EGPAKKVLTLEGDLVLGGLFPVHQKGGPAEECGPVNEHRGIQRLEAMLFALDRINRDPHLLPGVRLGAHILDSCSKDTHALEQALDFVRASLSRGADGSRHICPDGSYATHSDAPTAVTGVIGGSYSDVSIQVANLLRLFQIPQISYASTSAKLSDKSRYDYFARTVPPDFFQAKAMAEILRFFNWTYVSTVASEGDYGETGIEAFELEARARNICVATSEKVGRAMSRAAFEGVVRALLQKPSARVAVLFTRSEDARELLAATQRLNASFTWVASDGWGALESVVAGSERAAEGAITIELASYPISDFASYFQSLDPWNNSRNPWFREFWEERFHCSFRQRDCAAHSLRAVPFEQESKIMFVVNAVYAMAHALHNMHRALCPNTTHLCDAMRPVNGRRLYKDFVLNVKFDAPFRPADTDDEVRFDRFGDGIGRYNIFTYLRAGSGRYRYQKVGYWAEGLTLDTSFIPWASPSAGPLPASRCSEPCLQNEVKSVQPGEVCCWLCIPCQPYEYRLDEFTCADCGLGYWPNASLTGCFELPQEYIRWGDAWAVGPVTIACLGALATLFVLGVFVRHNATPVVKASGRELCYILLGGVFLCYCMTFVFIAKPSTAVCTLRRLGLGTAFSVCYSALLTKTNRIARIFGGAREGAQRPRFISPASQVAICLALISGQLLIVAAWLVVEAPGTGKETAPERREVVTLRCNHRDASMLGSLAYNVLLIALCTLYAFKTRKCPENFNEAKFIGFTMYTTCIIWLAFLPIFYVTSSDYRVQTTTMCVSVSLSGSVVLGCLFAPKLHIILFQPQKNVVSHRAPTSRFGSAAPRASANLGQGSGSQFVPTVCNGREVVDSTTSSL

In turn, `Cc1nc(COc2cc3c(cc2-c2ccccc2F)C(=O)NC3)cs1` [Compound 16, 6-(2-fluorophenyl)-5-((2-methylthiazol-4-yl)methoxy)isoindolin-1-one] returned an IC50 on human mGlu2 of 0.357 µM. The “Human mGlu3 GIRK IC50 (nM)” value at human mGlu3 is “Inactive”.
With `O=C1NCc2cc(OCc3ccccc3F)c(-c3ccc(F)cc3)cc21` [Compound 8, 5-((2-fluorobenzyl)oxy)-6-(4-fluorophenyl)isoindolin-1-one], the half-inhibitory concentration (IC50) against human mGlu2 amounted to 3.2 µM. The “Human mGlu3 GIRK IC50 (nM)” value on human mGlu3 is “Inactive”.
On the same counts, the results for `Cc1nc(COc2cc3c(cc2-c2ccc(F)cc2)C(=O)NC3)cs1` [Compound 18, 6-(4-fluorophenyl)-5-((2-methylthiazol-4-yl)methoxy)isoindolin-1-one] are 0.363 µM and “Inactive”.
Turning to `[2H]C([2H])([2H])Oc1ccccc1-c1cc2c(cc1OCc1ccn(C)n1)CNC2=O` [Compound 23, 6-(2-(methoxy-d3)phenyl)-5-((1-methyl-1H-pyrazol-3-yl)methoxy)isoindolin-1-one], half-maximal inhibition against human mGlu2 (IC50) required 7.72 µM. Further, the “Human mGlu3 GIRK IC50 (nM)” value on human mGlu3 is “Inactive”.
`O=C1NCc2cc(OCc3ccncc3)c(-c3ccc(F)cc3)cc21` [Compound 6, 6-(4-fluorophenyl)-5-(pyridin-4-ylmethoxy)isoindolin-1-one]: the IC50 at human mGlu2 worked out at 0.237 µM. Moreover, the “Human mGlu3 GIRK IC50 (nM)” value at human mGlu3 was “Inactive”.
Turning to `CC(C)n1ccc(COc2cc3c(cc2-c2ccc(F)cc2)C(=O)NC3)n1` [Compound 4, 6-(4-fluorophenyl)-5-((1-isopropyl-1H-pyrazol-3-yl)methoxy)isoindolin-1-one], the IC50 on human mGlu2 came to 0.261 µM. Further, at human mGlu3, the “Human mGlu3 GIRK IC50 (nM)” value is recorded as “Inactive”.
The compound `[2H]C([2H])([2H])Oc1ccc(-c2cc3c(cc2OCc2ccn(C)n2)CNC3=O)cc1` [Compound 24, 6-(4-(methoxy-d3)phenyl)-5-((1-methyl-1H-pyrazol-3-yl)methoxy)isoindolin-1-one] yielded an IC50 at human mGlu2 of 0.0995 µM. In addition, the “Human mGlu3 GIRK IC50 (nM)” value at human mGlu3 was “Inactive”.
On to `O=C1NCc2cc(OC3CN(Cc4cccnc4Cl)C3)c(-c3ccc(F)cc3)cc21` [Compound 82, 5-((1-((2-chloropyridin-3-yl)methyl)azetidin-3-yl)oxy)-6-(4-fluorophenyl)isoindolin-1-one], for which the IC50 on rat mGlu2 came to 2610 nM.
Compound `Cc1nn(C)cc1-c1cc2c(cc1OCc1ccn(C)n1)CNC2=O` [Compound 45, 6-(1,3-dimethyl-1H-pyrazol-4-yl)-5-((1-methyl-1H-pyrazol-3-yl)methoxy)isoindolin-1-one] yielded an IC50 on rat mGlu2 of 3820 nM.
On the same count and under the same terms, with `Cn1ccc(COc2cc3c(cc2-c2ccc(F)nc2)C(=O)NC3)n1` [Compound 44, 6-(6-fluoropyridin-3-yl)-5-((1-methyl-1H-pyrazol-3-yl)methoxy)isoindolin-1-one] the figure was 1840 nM.
Same read-out and setting: the same measure for `Cn1ccc(N2CC(Oc3cc4c(cc3-c3ccc(F)cc3)C(=O)NC4)C2)n1` [Compound 71, 6-(4-fluorophenyl)-5-((1-(1-methyl-1H-pyrazol-3-yl)azetidin-3-yl)oxy)isoindolin-1-one]: 1960 nM.
On to `Cc1nocc1S(=O)(=O)N1CC(Oc2cc3c(cc2-c2ccc(F)cc2)C(=O)NC3)C1` [Compound 74, 6-(4-fluorophenyl)-5-((1-((3-methylisoxazol-4-yl)sulfonyl)azetidin-3-yl)oxy)isoindolin-1-one], for which the IC50 against rat mGlu2 was over 10000 nM.
In turn, `O=C1NCc2cc(Oc3ccncc3)c(-c3ccc(F)cc3F)cc21` [Compound 32, 6-(2,4-difluorophenyl)-5-(pyridin-4-yloxy)isoindolin-1-one] showed an IC50 at rat mGlu2 of 151 nM.
At rat mGlu2, `Cc1ncc(COc2cc3c(cc2-c2ccc(F)cc2)C(=O)NC3)s1` [Compound 26, 6-(4-fluorophenyl)-5-((2-methylthiazol-5-yl)methoxy)isoindolin-1-one] yielded an IC50 of 92 nM.
In turn, `O=C1NCc2cc(OC3CN(c4ccncc4)C3)c(-c3ccc(F)cc3)cc21` [Compound 33, 6-(4-fluorophenyl)-5-((1-(pyridin-4-yl)azetidin-3-yl)oxy)isoindolin-1-one] showed an IC50 against rat mGlu2 of over 10000 nM.
For `Cn1ccc(COc2cc3c(cc2-c2ccc4c(c2)OCO4)C(=O)NC3)n1` [Compound 55, 6-(benzo[d][1,3]dioxol-5-yl)-5-((1-methyl-1H-pyrazol-3-yl)methoxy)isoindolin-1-one], on rat mGlu2, the IC50 is 1190 nM and 362 nM.
Compound `Cc1c(S(=O)(=O)N2CC(Oc3cc4c(cc3-c3ccc(F)cc3)C(=O)NC4)C2)cnn1C(F)F` [Compound 73, 5-((1-((1-(difluoromethyl)-5-methyl-1H-pyrazol-4-yl)sulfonyl)azetidin-3-yl)oxy)-6-(4-fluorophenyl)isoindolin-1-one] showed an IC50 on rat mGlu2 of 8040 nM.
Compound `Cc1cc(-c2cc3c(cc2OCc2ccn(C)n2)CNC3=O)n(C)n1` [Compound 48, 6-(1,3-dimethyl-1H-pyrazol-5-yl)-5-((1-methyl-1H-pyrazol-3-yl)methoxy)isoindolin-1-one] came in with an IC50 on rat mGlu2 of over 10000 nM.
On rat mGlu2, `Cc1ncc(S(=O)(=O)N2CC(Oc3cc4c(cc3-c3ccc(F)cc3)C(=O)NC4)C2)s1` [Compound 72, 6-(4-fluorophenyl)-5-((1-((2-methylthiazol-5-yl)sulfonyl)azetidin-3-yl)oxy)isoindolin-1-one] yielded an IC50 of 2140 nM.
In turn, `[2H]C([2H])(Oc1cc2c(cc1-c1ccc(F)cc1)C(=O)NC2)c1cnn(C)c1` [Compound 30, 6-(4-fluorophenyl)-5-((1-methyl-1H-pyrazol-4-yl)methoxy-d2)isoindolin-1-one] gave an IC50 on rat mGlu2 of 418 nM.
For the compound `O=C1NCc2cc(OC3CN(Cc4ccc5ncccc5c4)C3)c(-c3ccc(F)cc3)cc21` [Compound 83, 6-(4-fluorophenyl)-5-((1-(quinolin-6-ylmethyl)azetidin-3-yl)oxy)isoindolin-1-one], the IC50 against rat mGlu2 is 5000 nM.
Same read-out and setting: the same measure for `Cn1ccc(COc2cc3c(cc2-c2cc(F)nc(F)c2)C(=O)NC3)n1` [Compound 41, 6-(2,6-difluoropyridin-4-yl)-5-((1-methyl-1H-pyrazol-3-yl)methoxy)isoindolin-1-one]: over 10000 nM.
As for `CC(Oc1cc2c(cc1-c1ccc(F)nc1)C(=O)NC2)c1ccncc1` (stereo not shown) [Compound 40, 6-(6-fluoropyridin-3-yl)-5-(1-(pyridin-4-yl)ethoxy)isoindolin-1-one], the IC50 against rat mGlu2 was over 10000 nM.
The same measure, in the same setting: with `Cn1cc(OCc2cc3c(cc2-c2ccc(F)cc2)C(=O)NC3)cn1` [Compound 63, 6-(4-fluorophenyl)-5-(((1-methyl-1H-pyrazol-4-yl)oxy)methyl)isoindolin-1-one] the figure was 1190 nM and 1570 nM.

The term IC50 denotes the concentration that gives 50% inhibition. A lower IC50 goes with greater potency.
